{"source": "patent US20250230193A1", "about": "“CYCLIC COMPOUND HAVING SELECTIVE KRAS INHIBITORY EFFECT ON HRAS AND NRAS” (CHUGAI SEIYAKU KABUSHIKI KAISHA, priority 2022, published 2025)", "key": {"[1]": {"biological_target": "GDP-bound NRAS wild-type protein (Homo sapiens, UniProt P01111)", "sequence (P01111 whole entry)": "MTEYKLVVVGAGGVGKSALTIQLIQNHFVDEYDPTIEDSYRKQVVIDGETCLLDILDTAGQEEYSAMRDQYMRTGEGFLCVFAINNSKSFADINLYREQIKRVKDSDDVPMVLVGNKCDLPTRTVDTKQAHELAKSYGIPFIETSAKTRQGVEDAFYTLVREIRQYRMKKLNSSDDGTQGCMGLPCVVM", "assay": "Binding to NRAS by surface plasmon resonance (SPR), Single Cycle Kinetics", "details": "for NRAS/KRAS (ratio of KD value with respect to NRAS to KD value with respect to KRAS) / NRAS/KRAS (ratio of KD value for NRAS to KD value for KRAS): GDP-bound NRAS wild-type vs GDP-bound KRAS wild-type"}, "[2]": {"biological_target": "GDP-bound HRAS wild-type protein (Homo sapiens, UniProt P01112)", "sequence (P01112 whole entry)": "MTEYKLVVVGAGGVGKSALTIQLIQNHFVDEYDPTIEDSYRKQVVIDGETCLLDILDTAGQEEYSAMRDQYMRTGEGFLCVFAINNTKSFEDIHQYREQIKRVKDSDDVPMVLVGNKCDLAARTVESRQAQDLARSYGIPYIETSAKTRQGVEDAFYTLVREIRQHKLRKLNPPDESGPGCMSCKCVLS", "assay": "Binding to HRAS by surface plasmon resonance (SPR), Single Cycle Kinetics", "details": "for HRAS/KRAS (ratio of KD value with respect to HRAS to KD value with respect to KRAS) / HRAS/KRAS (ratio of KD value for HRAS to KD value for KRAS): GDP-bound HRAS wild-type vs GDP-bound KRAS wild-type"}}, "note": "Where a SMILES comes first, the peptide text is derived from it. Bridges are numbered along the chain shown (N, C = ends). [ ]: non-standard residue; d: D form. The star is where a group is joined. hPhe(3-Cl-4-CF3) = N[C@@H](CCc1ccc(C(F)(F)F)c(Cl)c1)C(=O)O; NPrPhe(4-CF3) = CCCN[C@@H](Cc1ccc(C(F)(F)F)cc1)C(=O)O; NMeAbu(4,4,4-F3) = CN[C@@H](CC(F)(F)F)C(=O)O; NMeGly(cPent) = CN[C@H](C(=O)O)C1CCCC1; Pro(4,4-F2) = O=C(O)[C@@H]1CC(F)(F)CN1; NMeD = CN[C@@H](CC(=O)O)C(=O)O; Morpholide = C1CN(*)CCO1; Ac5c = NC1(C(=O)O)CCCC1; Sar = CNCC(=O)O"}
{"compound": "CCC[C@H]1C(=O)N[C@@H]([C@@H](C)CC)C(=O)N2CCC[C@H]2C(=O)N(C)[C@H]2C/C=C\\CCN(C2=O)[C@@H](Cc2ccc(C)cc2)C(=O)N(C)CC(=O)N[C@@H](CCc2ccc(C(F)(F)F)c(OC)c2)C(=O)N2C[C@H](OCC)C[C@H]2C(=O)N(C)C2(CCC2)C(=O)N(C)[C@@H](C2CCCC2)C(=O)N(C)[C@H](C(=O)N2CCCC2)CC(=O)N1C", "note": "[PP3102, (1S,4S,10S,13S,17S,20S,26S,28R,32S,38S,42Z)-20-cyclopentyl-28-ethoxy-32-[2-[3-methoxy-4-(trifluoromethyl)phenyl]ethyl]-2,14,18,21,24,36-hexamethyl-10-[(1S)-1-methylpropyl]-13-propyl-38-(p-tolylmethyl)-17-(pyrrolidine-1-carbonyl)spiro[2,8,11,14,18,21,24,30,33,36,39-undecazatetracyclo[37.5.1.0^4,8.0^26,30]pentatetracont-42-ene-23,1′-cyclobutane]-3,9,12,15,19,22,25,31,34,37,45-undecone]", "values": [{"measurement": "NRAS/KRAS (ratio of KD value with respect to GDP-bound NRAS wild-type protein to KD value with respect to KRAS)", "setting": "[1]; KD ratio NRAS/KRAS, SPR, GDP-bound wild-type proteins", "value": "A (a compound having 10 or more and less than 20 is denoted as A)"}, {"measurement": "HRAS/KRAS (ratio of KD value with respect to GDP-bound HRAS wild-type protein to KD value with respect to KRAS)", "setting": "[2]; KD ratio HRAS/KRAS, SPR, GDP-bound wild-type proteins", "value": "A (a compound having 10 or more and less than 20 is denoted as A)"}]}
{"compound": "CCO[C@@H]1C[C@H]2C(=O)NC3(CC(C)(C)C3)C(=O)N(C)[C@@H](C(CC)CC)C(=O)N(C)[C@H](C(=O)N(C)C)CC(=O)N(C)[C@@H](CC3CCC3)C(=O)N[C@@H]([C@@H](C)CC)C(=O)N(C)CC(=O)N(C)[C@H]3C/C=C\\CCN(C3=O)[C@@H](Cc3ccc(C(F)(F)F)cc3)C(=O)N(C)CC(=O)N[C@@H](CCc3ccc(Cl)c(Cl)c3)C(=O)N2C1", "note": "[PP2180]", "values": [{"measurement": "NRAS/KRAS (ratio of KD value with respect to NRAS to KD value with respect to KRAS)", "setting": "[1]; SPR", "value": "AA (a compound having 20 or more is denoted as AA)"}, {"measurement": "HRAS/KRAS (ratio of KD value with respect to HRAS to KD value with respect to KRAS)", "setting": "[2]; SPR", "value": "A (a compound having 10 or more and less than 20 is denoted as A)"}]}
{"compound": "CCO[C@@H]1C[C@H]2C(=O)NC3(CC(C)(C)C3)C(=O)N(C)[C@@H](C3CCCC3)C(=O)N(C)[C@H](C(=O)N(C)C)CC(=O)N(C)[C@@H](CC3CC3)C(=O)N[C@@H]([C@@H](C)CC)C(=O)N(C)CC(=O)N(C)[C@H]3C/C=C\\CCN(C3=O)[C@@H](Cc3ccc(C(F)(F)F)cc3)C(=O)N(C)CC(=O)N[C@@H](CCc3cc(F)c(Cl)c(F)c3)C(=O)N2C1", "note": "[PP1759]", "values": [{"measurement": "NRAS/KRAS (ratio of KD value for NRAS to KD value for KRAS)", "setting": "[1]; SPR", "value": "A (a compound having 10 or more and less than 20 is denoted as A)"}, {"measurement": "HRAS/KRAS (ratio of KD value for HRAS to KD value for KRAS)", "setting": "[2]; SPR", "value": "A (a compound having 10 or more and less than 20 is denoted as A)"}]}
{"compound": "CCCN1C(=O)CN(C)C(=O)CN(C)C(=O)[C@H]([C@@H](C)CC)NC(=O)[C@H](CC(F)(F)F)N(C)C(=O)C[C@@H](C(=O)N2CCOCC2)N(C)C(=O)[C@H](C2CCCC2)N(C)C(=O)C2(CCCC2)NC(=O)[C@@H]2CC(F)(F)CN2C(=O)[C@H](CCc2ccc(C(F)(F)F)c(Cl)c2)NC(=O)CN(C)C(=O)[C@@H]1Cc1ccc(C(F)(F)F)cc1", "note": "[PP0199] ([NMeAbu(4,4,4-F3)]I[Sar][Sar][NPrPhe(4-CF3)][Sar][hPhe(3-Cl-4-CF3)][Pro(4,4-F2)][Ac5c][NMeGly(cPent)][NMeD]-Morpholide; lactam N-11)", "values": [{"measurement": "NRAS/KRAS (ratio of KD for GDP-bound NRAS wild-type to KD for KRAS)", "setting": "[1]; KD ratio NRAS/KRAS, SPR", "value": "B (a compound having 3 or more and less than 10 is denoted as B)"}, {"measurement": "HRAS/KRAS (ratio of KD for GDP-bound HRAS wild-type to KD for KRAS)", "setting": "[2]; KD ratio HRAS/KRAS, SPR", "value": "C (A compound having a KD ratio of 0.1 or more and less than 3 is denoted as C)"}]}
{"compound": "CCCOC[C@H]1C(=O)N[C@@H]([C@@H](C)CC)C(=O)N(C)CC(=O)N(C)[C@H]2C/C=C\\CCN(C2=O)[C@@H](Cc2ccc(C)cc2)C(=O)N(C)CC(=O)N[C@@H](CCc2ccc(C(F)(F)F)c(Cl)c2)C(=O)N2C[C@H](C)C[C@H]2C(=O)NC2(CC(C)(C)C2)C(=O)N(C)[C@@H](C2CCCC2)C(=O)N(C)[C@H](C(=O)N(C)C)CC(=O)N1C", "note": "[PP2234]", "values": [{"measurement": "NRAS/KRAS (ratio of KD value with respect to NRAS to KD value with respect to KRAS)", "setting": "[1]; SPR", "value": "A (a compound having 10 or more and less than 20 is denoted as A)"}, {"measurement": "HRAS/KRAS (ratio of KD value with respect to HRAS to KD value with respect to KRAS)", "setting": "[2]; SPR", "value": "A (a compound having 10 or more and less than 20 is denoted as A)"}]}
{"compound": "CCO[C@@H]1C[C@H]2C(=O)N(C)C3(CCC3)C(=O)N(C)[C@@H](C3CCCC3)C(=O)N(C)[C@H](C(=O)N(C)C)CC(=O)N(C)[C@@H](CC3CC3)C(=O)N[C@@H]([C@@H](C)CC)C(=O)N3CCC[C@H]3C(=O)N(C)[C@H]3C/C=C\\CCN(C3=O)[C@@H](Cc3ccc(C)cc3)C(=O)N(C)CC(=O)N[C@@H](CCc3cc(F)c(C(F)(F)F)c(F)c3)C(=O)N2C1", "note": "[PP1797]", "values": [{"measurement": "NRAS/KRAS (ratio of KD value for NRAS to KD value for KRAS)", "setting": "[1]; SPR", "value": "A (a compound having 10 or more and less than 20 is denoted as A)"}, {"measurement": "HRAS/KRAS (ratio of KD value for HRAS to KD value for KRAS)", "setting": "[2]; SPR", "value": "A (a compound having 10 or more and less than 20 is denoted as A)"}]}
{"compound": "CCO[C@@H]1C[C@H]2C(=O)NC3(CC(C)(C)C3)C(=O)N(C)[C@@H](C(CC)CC)C(=O)N(C)[C@H](C(=O)N(C)C)CC(=O)N(C)[C@@H](COC)C(=O)N[C@@H]([C@@H](C)CC)C(=O)N3CCC[C@H]3C(=O)N(C)[C@H]3C/C=C\\CCN(C3=O)[C@@H](Cc3ccc(C(F)(F)F)cc3)C(=O)N(C)CC(=O)N[C@@H](CCc3ccc(Cl)c(Cl)c3)C(=O)N2C1", "note": "[PP2635]", "values": [{"measurement": "NRAS/KRAS (ratio of KD value with respect to GDP-bound NRAS wild-type protein to KD value with respect to KRAS)", "setting": "[1]; KD ratio NRAS/KRAS, class symbols", "value": "AA (a compound having 20 or more is denoted as AA)"}, {"measurement": "HRAS/KRAS (ratio of KD value with respect to GDP-bound HRAS wild-type protein to KD value with respect to KRAS)", "setting": "[2]; KD ratio HRAS/KRAS, class symbols", "value": "A (a compound having 10 or more and less than 20 is denoted as A)"}]}
